How the values were obtained:
Set-up in all cases: MIC Alone: unit not given beside the values
Details in all cases: antimycotic agent alone
Blastomyces dermatitidis = system: Blastomyces dermatitidis
C. albicans = system: C. albicans
Cryptococcus = system: Cryptococcus

Row | Structure (SMILES) | MIC Alone (Blastomyces dermatitidis) | MIC Alone (C. albicans) | MIC Alone (Cryptococcus) | MLC Alone (C. albicans) | MLC Alone (Blastomyces dermatitidis) | MLC Alone (Cryptococcus)
1 | OC(Cn1cncn1)(Cn1cncn1)c1ccc(F)cc1F [FLU, fluconazole] | 10 | 2.5 | 10 | – | – | –
2 | C[C@@H]1[C@H](O)[C@@H](C)/C=C/C=C/C=C/C=C/C=C/C=C/C=C/[C@H](O[C@@H]2O[C@H](C)[C@@H](O)[C@H](N)[C@@H]2O)C[C@@H]2O[C@](O)(C[C@@H](O)C[C@@H](O)[C@H](O)CC[C@@H](O)C[C@@H](O)CC(=O)O[C@H]1C)C[C@H](O)[C@H]2C(=O)O [AMB, amphotericin B] | 0.29 | – | 0.29 | > 4.62 | – | –
3 | Clc1ccc(COC(Cn2ccnc2)c2ccc(Cl)cc2Cl)c(Cl)c1 (stereo not drawn) [MON, miconazole] | – | 1.25 | – | – | 5 | 5
